Laboratory results reported in article PMC7507806 (ACS Pharmacology & Translational Science, 2020).
pEC50, pIC50: −log10 of the molar value. Read-outs that look alike come from different tables or passages of the source. Non-standard residues stand in square brackets, D forms with d. Residues, ends and D or L forms follow the SMILES beside them. *: point of attachment. Nva = CCC[C@H](N)C(=O)O; Cbz = O=C(OCc1ccccc1)*

Legend:
[1] = tested on: SARS-CoV-2 (USA_WA1/2020); assay: SARS-CoV-2 cytopathic effect; type: cell-based; settings: Vero E6 cells; for pEC50: read-out: SARS-CoV-2 CPE EC50
[2] = tested on: Vero E6 cells; settings: for CC50: read-out: Vero E6 cytotoxicity CC50
[3] = biological target: T1, SARS-CoV-2 3CL^pro (Severe acute respiratory syndrome coronavirus 2, UniProt P0DTD1); type: biochemical; settings: for pIC50: read-out: 3CL^pro inhibition IC50
[4] = biological target: T1, SARS-CoV-2 3CL^pro; settings: cited from earlier work
[5] = tested on: SARS-CoV-2; settings: cited from earlier work
[6] = tested on: SARS-CoV-2 virus; settings: cited from earlier work
[7] = Table 2, compounds with partial fluorescence quenching effect

## O=C(O)Cc1cccc(OCCCN(Cc2cccc(C(F)(F)F)c2Cl)CC(c2ccccc2)c2ccccc2)c1 [GSK-3965]
[1]; Table 2 quenching compounds
  SARS-CoV-2 CPE efficacy: 22.51%
[2]; Table 2 quenching compounds
  Vero E6 cytotoxicity efficacy: 82.34%
  CC50: 14.1 µM
[3]
  3CL^pro inhibition max resp: 108.24%
  pIC50: 4.67

## O.O=C(OC[C@H]1O[C@@H](OC(=O)c2cc(O)c(O)c(O)c2)[C@H](OC(=O)c2cc(O)c(O)c(O)c2)[C@@H](OC(=O)c2cc(O)c(O)c(O)c2)[C@@H]1OC(=O)c1cc(O)c(O)c(O)c1)c1cc(O)c(O)c(O)c1 [penta-O-galloyl-β-D-glucose hydrate]
[2]; no virus, Table 1 compounds
  Vero E6 cytotoxicity efficacy: 80.28%
  CC50: 11.2 µM
[3]; Table 1 compounds
  3CL^pro inhibition max resp: 109.94%

## CC#C[C@@H](CC(=O)O)c1ccc(OCc2cccc(-c3ccc(C(F)(F)F)cc3)c2)cc1 [AMG-837]
[1]; Table 2 quenching compounds
  SARS-CoV-2 CPE efficacy: 106.31%
[2]; Table 2 quenching compounds
  Vero E6 cytotoxicity efficacy: 20.2%
[3]; [7]
  3CL^pro inhibition max resp: 65.79%

## CC(C)c1nc(CN(C)C(=O)N[C@H](C(=O)N[C@@H](Cc2ccccc2)C[C@H](O)[C@H](Cc2ccccc2)NC(=O)OCc2cncs2)C(C)C)cs1 [ritonavir]
[4]
  inhibition of 3CL^pro: did not show inhibition

## O=C1Nc2ccc(I)cc2/C1=C/c1cc(Br)c(O)c(Br)c1 [GW5074]
[2]; Table 2 quenching compounds
  Vero E6 cytotoxicity efficacy: 20.1%
  CC50: 11.2 µM
[3]; [7]
  3CL^pro inhibition max resp: 63.16%

## O=C(O)c1ccc(N2C(=O)/C(=C\c3ccc(-c4ccc([N+](=O)[O-])cc4)o3)C=C2c2ccccc2)cc1 [4E1RCat]
[1]; 72 h, Table 1 compounds
  SARS-CoV-2 CPE efficacy: 0%
  pEC50: < 4.70
[2]; no virus, Table 1 compounds
  Vero E6 cytotoxicity efficacy: 0%
  CC50: > 20 µM
[3]; Table 1 compounds
  3CL^pro inhibition max resp: 76.33%
[3]
  pIC50: 4.74

## O=C(Nc1cc(C(F)(F)F)cc(C(F)(F)F)c1)c1cnc(Cl)nc1C(F)(F)F [SP 100030]
[1]; 72 h, Table 1 compounds
  SARS-CoV-2 CPE efficacy: 0%
  pEC50: < 4.70
[2]; no virus, Table 1 compounds
  Vero E6 cytotoxicity efficacy: 0%
  CC50: > 20 µM

## CCC[C@@H](C=O)NC(=O)[C@H](CC(C)C)NC(=O)[C@H](CC(C)C)NC(=O)OCc1ccccc1 [MG-115] (Cbz-Leu-Leu-[Nva]-aldehyde)
[2]; no virus, Table 1 compounds
  Vero E6 cytotoxicity efficacy: 115.48%
  CC50: 1.13 µM
[3]; Table 1 compounds
  3CL^pro inhibition max resp: 74.89%

## CCCCCCCc1ccc(CCc2cccc(O)c2C(=O)O)cc1 [MG-149]
[2]; Table 2 quenching compounds
  Vero E6 cytotoxicity efficacy: 23.42%

## Cc1cc(C(=O)N[C@@H](C)C(=O)N[C@H](C(=O)N[C@@H](CC(C)C)C(=O)NC(/C=C/C(=O)OCc2ccccc2)C[C@@H]2CCNC2=O)C(C)C)no1 (some centres unmarked) [N3]
[5]
  antiviral activity in viral RNA quantification and plaque-reduction assays: strongest antiviral activity

## CSCC[C@@H](C=O)NC(=O)[C@H](CC(C)C)NC(=O)[C@H](CC(C)C)NC(C)=O [calpain inhibitor II] (Ac-Leu-Leu-Met-aldehyde)
[6]
  activity in CPE and viral yield reduction assays: active in both CPE and viral yield reduction assays

## CC(C)c1ccc2c(c1)c(SC(C)(C)C)c(CC(C)(C)C(=O)O)n2Cc1ccc(Cl)cc1 [MK-886]
[2]; Table 2 quenching compounds
  Vero E6 cytotoxicity efficacy: 40.83%
  CC50: 14.1 µM
[3]; [7]
  3CL^pro inhibition max resp: 109.11%

## Cc1cccc(C)c1OCC(=O)N[C@@H](Cc1ccccc1)[C@@H](O)C[C@H](Cc1ccccc1)NC(=O)[C@H](C(C)C)N1CCCNC1=O [Lopinavir]
[4]
  inhibition of 3CL^pro: did not show inhibition

## CCCC(NC(=O)C(CC(C)C)NC(=O)OCc1ccccc1)C(=O)C(=O)NCc1ccccn1 (centres unmarked) [calpain inhibitor XII]
[6]
  activity in CPE and viral yield reduction assays: active in both CPE and viral yield reduction assays

## vitamin B12
[1]; 72 h, Table 1 compounds
  SARS-CoV-2 CPE efficacy: 0%
  pEC50: < 4.70
[2]; no virus, Table 1 compounds
  Vero E6 cytotoxicity efficacy: 0%
  CC50: > 20 µM
[3]
  3CL^pro inhibition max resp: 71.06%

## O=C1C(Cl)=C(NCCN2CCOCC2)C(=O)c2ncccc21 [DA-3003–1]
[1]
  activity in CPE assay: exhibited CPE activity
[1]; 72 h, Table 1 compounds
  SARS-CoV-2 CPE efficacy: 53.77%
  pEC50: 5.35
[2]; no virus, Table 1 compounds
  Vero E6 cytotoxicity efficacy: 112%
  CC50: 7.74 µM

## CN[C@H](CC(C)C)C(=O)N[C@H]1C(=O)N[C@@H](CC(N)=O)C(=O)N[C@H]2C(=O)N[C@H]3C(=O)N[C@H](C(=O)N[C@H](C(=O)O)c4cc(O)cc(O)c4-c4cc3ccc4O)[C@H](O[C@H]3C[C@](C)(N)[C@@H](O)[C@H](C)O3)c3ccc(c(Cl)c3)Oc3cc2cc(c3O[C@@H]2O[C@H](CO)[C@@H](O)[C@H](O)[C@H]2O[C@H]2C[C@](C)(NCc3ccc(-c4ccc(Cl)cc4)cc3)[C@@H](O)[C@H](C)O2)Oc2ccc(cc2Cl)[C@H]1O.O=P(O)(O)O.O=P(O)(O)O [oritavancin (diphosphate)]
[1]; 72 h, Table 1 compounds
  SARS-CoV-2 CPE efficacy: 0%
  pEC50: < 4.70
[2]; no virus, Table 1 compounds
  Vero E6 cytotoxicity efficacy: 23.51%
  CC50: 14.1 µM
[3]; Table 1 compounds
  3CL^pro inhibition max resp: 93.29%

## C/C1=C2/[N-][C@H]([C@H](CC(N)=O)[C@@]2(C)CCC(=O)NC[C@@H](C)OP(=O)([O-])O[C@H]2[C@@H](O)[C@@H](n3cnc4cc(C)c(C)cc43)O[C@@H]2CO)[C@]2(C)N=C(/C(C)=C3N=C(/C=C4N=C1[C@@H](CCC(N)=O)C\4(C)C)[C@@H](CCC(N)=O)[C@]\3(C)CC(N)=O)[C@@H](CCC(N)=O)[C@]2(C)CC(N)=O.[Co+3].[OH-] [hydroxocobalamin]
[1]
  activity in CPE assay: neither effective in CPE assay
[1]; 72 h, Table 1 compounds
  SARS-CoV-2 CPE efficacy: 0%
  pEC50: < 4.70
[2]
  cytotoxicity to Vero E6 cells: nor cytotoxic to Vero E6 cells
[2]; no virus, Table 1 compounds
  Vero E6 cytotoxicity efficacy: 0%
  CC50: > 20 µM
[3]; Table 1 compounds
  3CL^pro inhibition max resp: 89.56%

## Oc1c(Cl)cc(Cl)c(Cl)c1Cc1c(O)c(Cl)cc(Cl)c1Cl [hexachlorophene]
[2]; Table 2 quenching compounds
  Vero E6 cytotoxicity efficacy: 63.02%

## CC(C)(C)NC(=O)N[C@H](C(=O)N1C[C@H]2[C@@H]([C@H]1C(=O)NC(CC1CCC1)C(=O)C(N)=O)C2(C)C)C(C)(C)C (some centres unmarked) [Boceprevir]
[6]
  activity in CPE and viral yield reduction assays: active in both CPE and viral yield reduction assays
[6]; read-out: EC50 against SARS-CoV-2 virus infection in the CPE assay
  pEC50: 5.72

## COc1ccc2cc(-c3cc(-c4cc(Cl)cc(Cl)c4)nn3[C@@H](C)c3ccc(C(=O)NCCC(=O)O)cc3)ccc2c1 [MK 0893]
[1]; 72 h, Table 1 compounds
  SARS-CoV-2 CPE efficacy: 23.89%
[2]; no virus, Table 1 compounds
  Vero E6 cytotoxicity efficacy: 80.04%
[3]; Table 1 compounds
  3CL^pro inhibition max resp: 95.77%

## O=C1C(SCCO)=C(SCCO)C(=O)c2ccccc21 [NSC 95397]
[1]; 72 h, Table 1 compounds
  SARS-CoV-2 CPE efficacy: 0%
  pEC50: < 4.70
[2]; no virus, Table 1 compounds
  Vero E6 cytotoxicity efficacy: 111.33%
  CC50: 14.1 µM
[3]; Table 1 compounds
  3CL^pro inhibition max resp: 98.7%

## CC1(C)CCC2=C(O1)c1ccccc1C(=O)C2=O [beta-lapachone]
[1]; 72 h, Table 1 compounds
  SARS-CoV-2 CPE efficacy: 0%
[2]; no virus, Table 1 compounds
  Vero E6 cytotoxicity efficacy: 15.06%
[3]; Table 1 compounds
  3CL^pro inhibition max resp: 60.88%

## Cc1cc(SCc2sc(-c3ccc(C(F)(F)F)c(F)c3)nc2C)ccc1OCC(=O)O [GW-0742]
[1]; 72 h, Table 1 compounds
  SARS-CoV-2 CPE efficacy: 0%
  pEC50: < 4.70
[2]; no virus, Table 1 compounds
  Vero E6 cytotoxicity efficacy: 0%
  CC50: > 20 µM
[3]; Table 1 compounds
  3CL^pro inhibition max resp: 126.23%

## COCCn1c2c([n+](Cc3cnccn3)c1C)C(=O)c1ccccc1C2=O [sepantronium bromide]
[1]; 72 h, Table 1 compounds
  SARS-CoV-2 CPE efficacy: 0%
[2]; no virus, Table 1 compounds
  Vero E6 cytotoxicity efficacy: 20.12%
[3]; Table 1 compounds
  3CL^pro inhibition max resp: 61.79%

## Cc1ccc(C(=O)Nc2ccc(S(=O)(=O)O)c3cc(S(=O)(=O)O)cc(S(=O)(=O)O)c23)cc1NC(=O)c1cccc(NC(=O)Nc2cccc(C(=O)Nc3cc(C(=O)Nc4ccc(S(=O)(=O)O)c5cc(S(=O)(=O)O)cc(S(=O)(=O)O)c45)ccc3C)c2)c1 [suramin sodium]
[1]
  activity in CPE assay: neither effective in CPE assay
[1]; 72 h, Table 1 compounds
  SARS-CoV-2 CPE efficacy: 0%
[2]; African green monkey
  cytotoxicity to Vero E6 cells: nor cytotoxic to Vero E6 cells
[2]; no virus, Table 1 compounds
  Vero E6 cytotoxicity efficacy: 0%
[3]; Table 1 compounds
  3CL^pro inhibition max resp: 99.49%

## O=c1c2ccccc2[se]n1-c1ccccc1 [ebselen]
[5]
  antiviral activity in viral RNA quantification and plaque-reduction assays: strongest antiviral activity

## CCCCCCCCCCCCCCCCC(C(=O)O)C(O)(CC(=O)O)C(=O)O (centres unmarked) [agaric acid]
[1]; 72 h, Table 1 compounds
  SARS-CoV-2 CPE efficacy: 0%
  pEC50: < 4.70
[2]; no virus, Table 1 compounds
  Vero E6 cytotoxicity efficacy: 0%
  CC50: > 20 µM
[3]; Table 1 compounds
  3CL^pro inhibition max resp: 110.16%

## CC1=NN(c2ccc(C)c(C)c2)C(=O)/C1=N\Nc1cccc(-c2cccc(C(=O)O)c2)c1O [eltrombopag olamine]
[1]; Table 2 quenching compounds
  SARS-CoV-2 CPE efficacy: 74.39%
[2]; Table 2 quenching compounds
  Vero E6 cytotoxicity efficacy: 68.67%

## CC1(C)OC2=C(C(=O)c3ccccc3C2=O)[C@H](NCc2ccccc2)[C@@H]1O [CAY-10581]
[1]; 72 h, Table 1 compounds
  SARS-CoV-2 CPE efficacy: 0%
  pEC50: < 4.70
[2]; no virus, Table 1 compounds
  Vero E6 cytotoxicity efficacy: 0%
  CC50: > 20 µM

## O=C1c2ccccc2-[n+]2ccc3c([nH]c4ccccc43)c21 [fascaplysin]
[1]; 72 h, Table 1 compounds
  SARS-CoV-2 CPE efficacy: 0%
[2]; no virus, Table 1 compounds
  Vero E6 cytotoxicity efficacy: 99.28%
[3]; Table 1 compounds
  3CL^pro inhibition max resp: 63.44%

## Cc1[nH]c(/C=C2\C(=O)Nc3cc(-c4ccccc4)ccc32)c(C)c1CCC(=O)O [SU 16f]
[1]; 72 h, Table 1 compounds
  SARS-CoV-2 CPE efficacy: 0%
  pEC50: < 4.70
[2]; no virus, Table 1 compounds
  Vero E6 cytotoxicity efficacy: 23.57%
  CC50: 7.94 µM

## Brc1c(Br)c(Br)c2n[nH]nc2c1Br [TBB]
[2]; no virus, Table 1 compounds
  Vero E6 cytotoxicity efficacy: 80.93%
  CC50: 8.91 µM
[3]; Table 1 compounds
  3CL^pro inhibition max resp: 77.96%

## CCCCCCCCCCCCCCCc1cccc(O)c1C(=O)O [anacardic acid]
[1]; Table 2 quenching compounds
  SARS-CoV-2 CPE efficacy: 89.62%
  pEC50: 5.40
[2]; Table 2 quenching compounds
  Vero E6 cytotoxicity efficacy: 72.92%
[3]; [7]
  3CL^pro inhibition max resp: 105.9%

## Cc1cc(O[C@@H](CCC(F)(F)F)c2ccc(C(=O)NCCC(=O)O)cc2)cc(C)c1-c1ccc(C(C)(C)C)cc1 [adomeglivant]
[1]; Table 2 quenching compounds
  SARS-CoV-2 CPE efficacy: 49.2%
[2]; Table 2 quenching compounds
  Vero E6 cytotoxicity efficacy: 36.97%
